Experimental findings from patent US9057727B2, “Screening methods using G-protein coupled receptors and related compositions” (The General Hospital Corporation, priority 2007, dated 2015) are described below.

“Also recorded” adds a separate entry of the source. Square brackets hold non-standard residues; d marks the D form. Peptide text beside a SMILES is read from it. hArg = N=C(N)NCCCC[C@H](N)C(=O)O; Aib = CC(C)(N)C(=O)O

A short description of test [1]: Plasma phosphate and serum ionized calcium in mice after subcutaneous injection. Format: in vivo. To be noted: 50 nmol/kg s.c. As to the method:
FIGS. 10A and 10B are graphs showing in vivo plasma phosphate and serum ionized calcium levels in mice treated with PTH analogs. […] Serum ionized calcium concentrations were determined using a Chiron Diagnostics Model 634 Ca^++/pH analyzer. Data in A are means (±s.e.m.) of one experiment using six mice (n=6) for each injection condition; similar results were obtained in three other experiments. Data in B are means (±s.e.m.) of two experiments, each performed using triplicate mice (n=3) for each injection condition.
The mice were further analyzed for changes in plasma phosphate and serum ionized calcium concentrations. […] At the indicated times after injection, blood was withdrawn from the tail vein and the concentrations of plasma phosphate (FIG. 10A) and serum ionized calcium (FIG. 10B) were determined. Serum ionized calcium concentrations were determined using a Chiron Diagnostics Model 634 Ca^++/pH analyzer. Plasma phosphate concentrations were measured using a Phosphorous Liqui-UV assay kit (StanBio Laboratory, Boerne, Tex.).
Wild-type mice were injected subcutaneously with vehicle (0.9% NaCl/0.05% Tween-20), or vehicle containing a PTH peptide at a dose level of 10 to 1000 nmol/kg of body weight. At indicated times after injection, blood was withdrawn from the tail vein, and the amount of cAMP in the resulting plasma was quantified by radioimmuno assay. […]

The test system of test [2] is opossum kidney (OK) cell line. The experiment in a line: Phosphate uptake inhibition in opossum kidney cells. Format: cell-based. To be noted: 10 minute exposure, 1×10^−7 M.
The test system of another test is NaPi-IIc. Put plainly: NaPi-IIc immunostaining in renal PT cells of injected mice. The format is in vivo. The following applies: interval 4 to 6 h. The text has this:
(§1) To impair PLC signaling, we replaced alanine at position 1 of M-PTH(1-28) with tryptophan, in accordance with findings of Bisello and colleagues (J Biol Chem 277:38524-30, 2002) showing that such bulky substitutions at this position selectively impair PLC signaling.

A short description of test [3]: Plasma cAMP in mice after subcutaneous injection. Format: in vivo. As to the method:
FIGS. 9A-9D are graphs showing in vivo plasma cAMP levels in mice treated with PTH analogs. Wild-type mice were injected subcutaneously with vehicle (0.9% NaCl/0.05% Tween-20), or vehicle containing a PTH peptide at a dose-level of 10 to 1,000 nmol of peptide per kg of body weight, and at indicated times after injection, blood was withdrawn from the tail vein, and the amount of cAMP in the resulting plasma was quantified by radioimmuno assay. Each curve corresponds to a peptide at a defined concentration, as indicated in the graph keys. The plasma cAMP concentrations are plotted as picomole per μl plasma.
Wild-type mice were injected subcutaneously with vehicle (0.9% NaCl/0.05% Tween-20), or vehicle containing a PTH peptide so as to achieve a concentration ranging from 10 to 1000 nmol/kg of body weight. At the indicated times after injection, blood was withdrawn from the tail vein, and the amount of cAMP in the resulting plasma was quantified by radioimmuno assay (FIGS. 9A-9D).
Wild-type mice were injected subcutaneously with vehicle (0.9% NaCl/0.05% Tween-20), or vehicle containing a PTH peptide at a dose level of 10 to 1000 nmol/kg of body weight. At indicated times after injection, blood was withdrawn from the tail vein, and the amount of cAMP in the resulting plasma was quantified by radioimmuno assay. Ionized calcium in serum was measured as above and phosphate was measured by a U.V. spectroscopic kit assay.

In test [4] the target is T1, ROS 17/2.8 cells (endogenous rat PTHR) (Rattus norvegicus, UniProt P25961).
T1 construct: the rat osteoblastic cell line ROS17/2.8, which endogenously expresses the rat PTHR; endogenous in cells; host or cells: ROS 17/2.8 rat osteosarcoma cells (membranes or intact cells)
T1 sequence (P25961 27-591): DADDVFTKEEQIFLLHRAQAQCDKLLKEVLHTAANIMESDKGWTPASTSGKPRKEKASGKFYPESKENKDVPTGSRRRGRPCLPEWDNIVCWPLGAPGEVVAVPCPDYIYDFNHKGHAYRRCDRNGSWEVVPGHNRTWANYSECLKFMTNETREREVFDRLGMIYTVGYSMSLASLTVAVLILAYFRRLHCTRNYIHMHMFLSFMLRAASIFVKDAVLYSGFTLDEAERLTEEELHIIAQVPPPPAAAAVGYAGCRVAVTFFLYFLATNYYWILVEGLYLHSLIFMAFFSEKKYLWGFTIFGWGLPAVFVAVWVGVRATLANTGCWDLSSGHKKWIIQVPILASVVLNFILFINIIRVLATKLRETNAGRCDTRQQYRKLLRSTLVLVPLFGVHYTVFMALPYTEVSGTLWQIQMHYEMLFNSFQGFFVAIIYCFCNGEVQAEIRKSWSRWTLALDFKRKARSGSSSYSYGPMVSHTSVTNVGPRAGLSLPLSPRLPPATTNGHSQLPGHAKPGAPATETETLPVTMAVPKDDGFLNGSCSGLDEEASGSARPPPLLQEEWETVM
Put plainly: Acute cAMP response in ROS 17/2.8 rat osteoblastic cells. Format: cell-based. To be noted: 10^−7 M, hPTH(1-28) 10^−6 M, basal 3.7±0.4.
Method: The resulting intracellular cAMP formed was quantified by radioimmuno assay. […] Curve fits were obtained by non-linear regression analysis.
The data in FIG. 21B are expressed as a percent of the maximum response observed for each ligand, determined by incubating the cells with ligand in the presence of IBMX for 10 minutes (no ligand wash-out).

A further test relates to NaPi-IIa. Put plainly: NaPi-IIa staining in renal PT cells of injected mice. The following applies: mouse, in vivo.
Excerpt: To help elucidate further the signaling mechanisms by which PTH ligands regulate renal phosphate transport, we developed a derivative of M-PTH(1-28) that is defective for PLC/PKC signaling, yet retains potent cAMP/PKA signaling activity. Such a peptide allows for study of the relative roles of the PKA and PKC signaling pathways in modulating the function and surface expression of the Pi transporters NaPi-IIa and NaPi-IIc in proximal tubule (PT) cells. The analog M-PTH(1-28) (M=Ala^1,Aib^3,Gln^10, Har^11,Trp^14,Arg^19), a potent agonist for cAMP and IP3 signaling pathways, induces, when injected into mice, prolonged hypophosphatemic and hypercalcemic effects.
as §1

A short description of test [5]: Plasma phosphate in mice (20 nmol/kg). The format is in vivo.
Excerpt: as §1

In test [6] the test system is LLC-PK1 cells expressing NaPi-IIc transporter and the rat PTHR. The experiment in a line: 32P uptake in LLC-PK1 cells expressing NaPi-IIc transporter and rat PTHR. The format is cell-based.
Excerpt: as §1

Test [7] has as its target T2, PTHR lacking the extracellular N-terminal (N) domain (delNT) (Homo sapiens, UniProt Q03431).
T2 construct: expressed in transfected cells
T2 sequence (Q03431 with tags, fused parts or gaps limits assumed): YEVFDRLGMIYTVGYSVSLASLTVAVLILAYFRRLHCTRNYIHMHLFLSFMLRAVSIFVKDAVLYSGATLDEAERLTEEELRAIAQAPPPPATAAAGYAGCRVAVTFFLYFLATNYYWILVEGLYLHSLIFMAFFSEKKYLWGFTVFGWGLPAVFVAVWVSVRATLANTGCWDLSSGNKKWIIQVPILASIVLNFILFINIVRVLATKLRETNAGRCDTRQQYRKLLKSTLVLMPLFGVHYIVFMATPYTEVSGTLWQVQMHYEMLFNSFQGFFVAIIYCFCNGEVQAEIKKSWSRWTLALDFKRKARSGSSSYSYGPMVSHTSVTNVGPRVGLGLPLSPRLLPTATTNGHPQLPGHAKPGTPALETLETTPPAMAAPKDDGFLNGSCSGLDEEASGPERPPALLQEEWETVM
Put plainly: cAMP activity in cells expressing PTHR lacking the N domain (delNT). The format is cell-based.

Another test addresses T3, rat PTHR (Rattus norvegicus, UniProt P25961).
T3 sequence (P25961 27-591): T1 sequence (P25961 27-591)
Put plainly: GTPγS inhibition of equilibrium radioligand binding, ROS17/2.8 membranes. More on the design: the rat osteoblastic cell line ROS17/2.8, which endogenously expresses the rat PTHR; endogenous in cells; host or cells: ROS 17/2.8 rat osteosarcoma cells (membranes or intact cells). The method, then:
FIGS. 2A and 2B are graphs showing GTPγS sensitivity of PTH and PTHrP analog binding to the human and rat PTHRs. Radioligand analog binding to the PTHR in membranes prepared from HKRK-B7 (FIG. 2A) or ROS 17/2.8 cells (FIG. 2B) was assessed under near-equilibrium conditions in the absence or presence of varying concentrations of GTPγS. Data are expressed as a percent of radioactivity specifically bound (SB) in the absence of GTPγS. […] The radioligands studied were ^125I-[Nle^8,21,Tyr^34]PTH(1-34)NH2 (SEQ ID NO:123); [Tyr^36]PTHrP(1-36)NH2 (SEQ ID NO:124); [Ile^5,Tyr^36]PTHrP(1-36)NH2 (SEQ ID NO:125) and [Aib^1,3,Nle^8,Gln^10,Har^11,Ala^12,Trp^14,Tyr^15]hPTH(1-15)NH2 (SEQ ID NO:126).
The effects of GTPγS on the binding of these radioligands to the PTHR under approximate-equilibrium conditions was assessed. by incubating with cell membranes for 90 minutes in the absence or presence of GTPγS at varying concentrations. […]
Binding reactions performed with ^125I-[Aib^1,3,M]PTH(1-15) radioligand were assembled and incubated in the wells of the 96-well, Multi-Screen vacuum filtration plates. […] For both radioligands, the non-specific binding was determined in reactions containing a saturating concentration of the unlabeled analog of the radioligand. The specifically bound radioactivity was calculated as a percent of the radioactivity specifically bound in the absence of a competing ligand or GTPγS.

In the next test the target is T4, hPTHR (Homo sapiens, UniProt Q03431).
T4 sequence (Q03431 27-593): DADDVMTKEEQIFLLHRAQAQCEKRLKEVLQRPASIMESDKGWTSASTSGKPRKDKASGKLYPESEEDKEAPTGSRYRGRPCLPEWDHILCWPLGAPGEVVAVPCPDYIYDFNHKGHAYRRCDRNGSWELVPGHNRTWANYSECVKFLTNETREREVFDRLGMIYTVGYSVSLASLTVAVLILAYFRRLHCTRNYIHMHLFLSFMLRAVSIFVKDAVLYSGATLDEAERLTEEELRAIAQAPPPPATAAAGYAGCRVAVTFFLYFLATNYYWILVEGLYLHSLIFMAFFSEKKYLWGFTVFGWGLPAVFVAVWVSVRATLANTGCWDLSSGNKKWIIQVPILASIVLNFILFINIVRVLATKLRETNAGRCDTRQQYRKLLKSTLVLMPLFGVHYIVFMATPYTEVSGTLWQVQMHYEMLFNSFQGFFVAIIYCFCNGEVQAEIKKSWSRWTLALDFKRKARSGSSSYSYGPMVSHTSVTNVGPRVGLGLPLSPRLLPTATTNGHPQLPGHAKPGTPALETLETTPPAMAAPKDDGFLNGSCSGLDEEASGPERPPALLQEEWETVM
Put plainly: Radioligand dissociation from PTHR in HKRK-B7 membranes with or without GTPγS. More on the design: expressed in transfected cells. The format is binding.

Method for hPTHR: At each time point, aliquots were removed from the reaction tubes and immediately subjected to rapid vacuum filtration using a 96-well vacuum filtration plate to separate bound from free radioactivity. Non-specific binding was determined in tubes containing the unlabeled ligand (5×10^−7 M) during both the pre-incubation and dissociation phases. The specifically bound radioactivity (SB) at each time point was then expressed as the percent of the specific binding observed at t=0. […] Curves were fit to the data using either a two-phase (FIGS. 1A and 1B) or single phase (FIG. 1C) exponential decay equation. […]
Reactions contained a total membrane protein concentration of 20 to 100 μg/mL, and a total radioactivity concentration of approximately 150,000 cpm/ml. […] At the end of the reaction, bound and free radioligand were separated by vacuum filtration using a 96-well vacuum filter plate and vacuum filter apparatus (Multi-Screen system with Durapore HV, 0.65 μM filters; Millipore Corp., Milford, Mass.); the air-dried filters were then detached from the plate and counted for gamma radioactivity using a gamma counter.
These studies were performed as bulk reactions in 15 mL round-bottom polystyrene snap-cap tubes (Falcon) (total reaction volume=5.0 ml). […] The specifically bound radioactivity at each time point was calculated as a percent of the radioactivity specifically bound at t=0.

With `CC[C@H](C)[C@H](NC(=O)[C@H](CCC(=O)O)NC(=O)C(C)(C)NC(=O)[C@@H](NC(=O)[C@H](C)N)C(C)C)C(=O)N[C@@H](CCC(N)=O)C(=O)N[C@@H](CC(C)C)C(=O)N[C@@H](CCSC)C(=O)N[C@@H](Cc1c[nH]cn1)C(=O)N[C@@H](CCC(N)=O)C(=O)N[C@@H](CCCCNC(=N)N)C(=O)N[C@@H](C)C(=O)N[C@@H](CCCCN)C(=O)N[C@@H](Cc1c[nH]c2ccccc12)C(=O)N[C@@H](CC(C)C)C(=O)N[C@@H](CC(N)=O)C(=O)N[C@@H](CO)C(=O)N[C@@H](CCSC)C(=O)N[C@@H](CCCNC(=N)N)C(=O)N[C@@H](CCCNC(=N)N)C(=O)N[C@H](C(=O)N[C@@H](CCC(=O)O)C(=O)N[C@@H](Cc1c[nH]c2ccccc12)C(=O)N[C@@H](CC(C)C)C(=O)N[C@@H](CCCNC(=N)N)C(=O)N[C@@H](CCCCN)C(=O)N[C@@H](CCCCN)C(=O)N[C@@H](CC(C)C)C(N)=O)C(C)C` [[A^1,Aib^3,M]-PTH(1-28), [Ala^1,12,Aib^3,Gln^10,homoarginine^11,Trp^14,Arg^19]human(h)PTH(1-28)NH2] (H-AV[Aib]EIQLMHQ[hArg]AKWLNSMRRVEWLRKKL-NH2; N-terminus assumed), the “duration of serum calcium and plasma phosphate responses, in words” value in [1] is “more prolonged than those to hPTH(1-34)NH2”. Besides, in [2], the “duration of phosphate uptake inhibition, in words” value is “dramatically prolonged inhibitory effect on phosphate uptake”. Also, in the test with NaPi-IIc, the “NaPi-IIc immunostaining, in words” value was “reduced”. Also, in [3], the “dose producing comparable increase in plasma cAMP” value is 50 nmol/kg. Also, the “maximum cAMP response (ligand with IBMX 10 minutes, no wash-out)” value in [4] is listed as 71±1 pmole/well. Further, the “apical and cytoplasmic NaPi-IIa staining, in words” value in the test with NaPi-IIa is given as “prolonged reductions in NaPi-IIa immunoreactivity; also recorded: remained reduced for at least six hours”. Further, in [5], the “time of maximal suppression of plasma phosphate” value amounted to 2 h and the “time of recovery of plasma phosphate to vehicle control levels” value worked out at 6 h. Moreover, the “^32P uptake, in words” value in [6] is given as “inhibited”.
Consider PTHrP(1-14) (AVSEHQLLHDKGKS), for which, in test [7], the “cAMP potency on delNT compared with PTH counterparts, in words” value is “much less potent for cAMP activity”.
Take “^125I[Tyr^36]PTHrP(1-36)NH2 [^125I-PTHrP(1-36)]”: the “sensitivity of binding to GTPγS, in words” value at rat PTHR is given as “strongly inhibited”. Moreover, the “fraction of complexes stable, decaying slowly” value on hPTHR (absence of GTPγS) is given as 68%. Moreover, on hPTHR (with GTPγS), the “fraction of complexes unstable, decaying rapidly” value was found to be 72%.
